Consider 17 molecules from patent US10711006B2, “Selective Bruton's tyrosine kinase inhibitor and use thereof” (HANGZHOU HERTZ PHARMACEUTICAL CO., LTD., priority 2016, dated 2020).

pIC50: −log10 of the molar value.

Data set [1] deals with BTK Kinase (Homo sapiens (Human), UniProt Q06187). Nature of the data set: In-vitro Btk kinase inhibitory activity assay. It counts as biochemical. How it is done:
In-Vitro Btk Kinase Inhibitory Activity Assay for Compounds of the Present Invention:
10 μL of the 50× drug stock solution was added to a 96-well plate and then 90 μL of a 1× Kinase Buffer was added and the 96-well plate was shaken for 10 minutes on a shaker. From each well of the 96-well plate, 5 μL of the drug solution was taken and then transferred to a 384-well plate which was provided with 2 duplicate wells.
Preparation of a 2.5× Kinase Buffer: an enzyme was added to the 1× kinase base buffer.
Prepare a 2.5× oligopeptide solution: FAM-labeled oligopeptide and ATP were added to the 1× kinase base buffer.
10 μL of the 2.5× Kinase Buffer was added to the 384-well plate loaded with 5 μL of the drug solution and incubation was then carried out for 10 minutes at room temperature. 10 μL of the 2.5× oligopeptide solution was added to the 384-well plate and incubation was then carried out for 1 hour at 28° C. The reaction was stopped by adding 25 μL of a stop buffer. The readings were recorded and the inhibition rate of the compound on the enzyme was calculated. The IC50 of BTK kinase was calculated by fitting.

Data set [2] has as its target hERG potassium channel (Homo sapiens (Human), UniProt Q12809). Kind of data set: hERG potassium channel inhibitory activity, manual patch clamp in CHO cells. It counts as cell-based. Conditions: CHO cells stably expressing hERG, whole-cell patch clamp. The procedure: The cells used in this experiment were CHO cell lines transfected with HergCdna and stably expressing Herg channels (supplied by Sophion Bioscience, Denmark). The cells were cultured in a medium containing the following components (all from Invitrogen): Ham's F12 medium, 10% (v/v) inactivated fetal bovine serum, 100 μg/ml hygromycin B, 100 μg/ml Geneticin. […] 24 to 48 hours before an electrophysiological experiment, CHO Herg cells were transferred to circular slides placed in the culture dishes and grow with the same culture liquid under the same culture conditions as above. The density of CHO Herg cells on each circular slide was required to reach such a value that most cells were independent and stand alone.
2. Treatment and Dilution of a Compound
Before the test, the compound was first diluted with DMSO at gradient to make stock solutions with concentrations of 10, 3, 1, 0.3 and 0.1 Mm and the stock solutions were then diluted with extracellular fluid to a final Mm test concentration. Except that the DMSO concentration in the 30 Mm compound test solution was 0.3%, the final concentration of DMSO in each of the compound solutions with other concentrations was 0.1%. The test concentration of a positive control Cisapridewas 0.1 Mm. All compound solutions were conventionally sonicated and shaken for 5 to 10 minutes to ensure complete dissolution of the compound.
3. Electrophysiological Recording System and Data Analysis
This experiment uses a manual patch clamp system (HEKA EPC-10 signal amplifier and digital conversion system, purchased from HEKA Electronics, Germany) for the recording of whole cell currents. The circular slides with CHO Herg cells growing on the surfaces were placed in an electrophysiological recording slot under an inverted microscope. The extracellular fluid was used for continuous perfusion in the recording slot (approximately lml per minute). The experimental procedure uses a conventional whole-cell patch clamp current recording technique. Unless otherwise stated, the experiment was carried out at regular room temperature ([…]). The cells were clamped at a voltage of −80 Mv. The cell clamp voltage was depolarized to +20 Mv to activate the Herg potassium channel, and 5 seconds later, it was clamped to −50 Mv to eliminate inactivation and generate tail current. The peak of the tail current was used as the value of the Herg current. After the hERG potassium current recorded in the above step was stabilized under the continuous extracellular fluid perfusion in the recording slot, the drug to be tested can be superimposed to the perfusion until the inhibitory effect of the drug on the hERG current reaches a steady state. Generally, the criterion for determine whether or not the stable state was reached was that the recent three consecutive current recording lines were coincident. After the steady state was reached, extracellular fluid perfusion was carried out for flushing until the hERG current returns to the magnitude before the drug was added. One cell may be used for testing one or more drugs, or multiple concentrations of the same drug, and flushing with extracellular fluid was carried out between tests of different drugs. Cisapride (purchased from Sigma) was used in the experiment as a positive control to ensure that the cells used were of normal quality. The test data was analyzed by data analysis software provided by HEKA Patchmaster, Microsoft Excel and Graphpad Prism.
For orientation: The hERG channel carries a current that helps repolarise heart muscle cells.

The test system of data set [3] is human lung cancer cell (A549). Nature of the data set: In-vitro tumor cell proliferation inhibition (CCK-8), A549. The note with it: A549, 72 h, read-out: Tumor cell proliferation inhibitory activity (IC50, μM) A549.
Description: (§1) The in-vitro antitumor activity assay was carried out on the synthesized compound by using different solid tumors and leukemia cell lines:
(§2) Cell lines: human lung cancer cell (A549), human mantle cell lymphoma (MINO), diffuse giant B-cell lymphoma (OCI-LY10), and human diffuse large B lymphoma (TMD-8).
(§3) Preparation method of the drug: the drug was dissolved in DMSO to make a 10 mM stock solution, and then the stock solution was diluted in a certain ratio to obtain 5 different concentrations (test concentration 100×). In-vitro culture of tumor cells:
(§4) The tumor cells A549, MINO, OCI-LY10, and TMD-8 were seeded in a 96-well plate at 4000 cells/200 μL/well and then incubated overnight at 37° C. in a 5% CO2 cell culture incubator. 2 μL of the compound was added to each well to final concentrations of 50 μM, 10 μM, 2 μM, 0.4 μM, and 0.08 μM and then incubated for 72 hours at 37° C. in a 5% CO2 cell incubator, with DMSO (2%) as a control group. […] Wells loaded with the corresponding amount of cell culture fluid the and CCK-8 solution but no cells were considered as blank controls. The absorbance (OD value) was measured at 450 nm using a microplate reader, and the obtained data was used to calculate IC50.
The test system of data set [4] is human mantle cell lymphoma (MINO). Nature of the data set: In-vitro tumor cell proliferation inhibition (CCK-8), MINO. The note with it: 72 h, read-out: Tumor cell proliferation inhibitory activity (IC50, μM) MINO.
Description: as §1, §2, §3, §4
In data set [5] the test system is human diffuse large B lymphoma (TMD-8). Nature of the data set: In-vitro tumor cell proliferation inhibition (CCK-8), TMD-8. Conditions: TMD8, 72 h, read-out: Tumor cell proliferation inhibitory activity (IC50, nM) TMD-8.
Data set [6] concerns diffuse giant B-cell lymphoma (OCI-LY10). Nature of the data set: In-vitro tumor cell proliferation inhibition (CCK-8), OCI-LY10. The note with it: Homo sapiens, OCI-Ly10, 72 h, read-out: Tumor cell proliferation inhibitory activity (IC50, nM) OCI-LY10.
Description: as §1, §2, §3, §4
Data set [7] is described as follows: Oral pharmacokinetic experiment in SD rats. Format: in vivo. The procedure: SD rats were used as experimental animals and were subjected to intragastric administration in a dose of 10 mg/kg and tail-vein intravenous injection in a dose of 2 mg/kg. The tail-vein blood sampling time points in the intragastric administration were 0.17, 0.33, 0.5, 1, 1.5, 2, 4, 6, 8, 12, and 24 hours; the blood sampling time points in the intravenous administration were 0.05, 0.1, 0.17, 0.5, 1, 2, 4, 6, 8, 12, and 24 hours. 0.3 ml of whole blood was taken, and 0.1 ml of plasma after centrifugation was taken and analyzed by LC-MS.

Setting [8] is: oral (intragastric) 10 mg/kg, mean n = 3.

BTK Kinase, sequence (Q06187 whole entry): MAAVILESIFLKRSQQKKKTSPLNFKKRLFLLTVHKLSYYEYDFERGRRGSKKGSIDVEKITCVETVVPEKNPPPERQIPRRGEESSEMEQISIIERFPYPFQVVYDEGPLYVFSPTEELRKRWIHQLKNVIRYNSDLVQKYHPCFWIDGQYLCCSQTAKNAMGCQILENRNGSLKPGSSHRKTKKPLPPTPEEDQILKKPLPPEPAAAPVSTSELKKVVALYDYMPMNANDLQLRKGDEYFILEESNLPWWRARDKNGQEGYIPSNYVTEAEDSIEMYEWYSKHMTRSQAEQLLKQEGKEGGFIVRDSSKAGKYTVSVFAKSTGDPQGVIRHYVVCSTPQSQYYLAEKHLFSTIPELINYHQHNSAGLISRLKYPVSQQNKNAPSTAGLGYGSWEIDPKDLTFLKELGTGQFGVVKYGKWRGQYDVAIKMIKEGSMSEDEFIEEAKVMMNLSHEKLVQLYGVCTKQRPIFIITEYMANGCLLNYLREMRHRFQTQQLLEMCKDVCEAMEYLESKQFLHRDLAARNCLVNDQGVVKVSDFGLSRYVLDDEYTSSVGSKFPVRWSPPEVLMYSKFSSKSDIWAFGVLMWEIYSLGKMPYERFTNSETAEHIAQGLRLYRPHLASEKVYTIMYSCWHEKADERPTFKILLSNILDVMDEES
hERG potassium channel, sequence (Q12809 whole entry): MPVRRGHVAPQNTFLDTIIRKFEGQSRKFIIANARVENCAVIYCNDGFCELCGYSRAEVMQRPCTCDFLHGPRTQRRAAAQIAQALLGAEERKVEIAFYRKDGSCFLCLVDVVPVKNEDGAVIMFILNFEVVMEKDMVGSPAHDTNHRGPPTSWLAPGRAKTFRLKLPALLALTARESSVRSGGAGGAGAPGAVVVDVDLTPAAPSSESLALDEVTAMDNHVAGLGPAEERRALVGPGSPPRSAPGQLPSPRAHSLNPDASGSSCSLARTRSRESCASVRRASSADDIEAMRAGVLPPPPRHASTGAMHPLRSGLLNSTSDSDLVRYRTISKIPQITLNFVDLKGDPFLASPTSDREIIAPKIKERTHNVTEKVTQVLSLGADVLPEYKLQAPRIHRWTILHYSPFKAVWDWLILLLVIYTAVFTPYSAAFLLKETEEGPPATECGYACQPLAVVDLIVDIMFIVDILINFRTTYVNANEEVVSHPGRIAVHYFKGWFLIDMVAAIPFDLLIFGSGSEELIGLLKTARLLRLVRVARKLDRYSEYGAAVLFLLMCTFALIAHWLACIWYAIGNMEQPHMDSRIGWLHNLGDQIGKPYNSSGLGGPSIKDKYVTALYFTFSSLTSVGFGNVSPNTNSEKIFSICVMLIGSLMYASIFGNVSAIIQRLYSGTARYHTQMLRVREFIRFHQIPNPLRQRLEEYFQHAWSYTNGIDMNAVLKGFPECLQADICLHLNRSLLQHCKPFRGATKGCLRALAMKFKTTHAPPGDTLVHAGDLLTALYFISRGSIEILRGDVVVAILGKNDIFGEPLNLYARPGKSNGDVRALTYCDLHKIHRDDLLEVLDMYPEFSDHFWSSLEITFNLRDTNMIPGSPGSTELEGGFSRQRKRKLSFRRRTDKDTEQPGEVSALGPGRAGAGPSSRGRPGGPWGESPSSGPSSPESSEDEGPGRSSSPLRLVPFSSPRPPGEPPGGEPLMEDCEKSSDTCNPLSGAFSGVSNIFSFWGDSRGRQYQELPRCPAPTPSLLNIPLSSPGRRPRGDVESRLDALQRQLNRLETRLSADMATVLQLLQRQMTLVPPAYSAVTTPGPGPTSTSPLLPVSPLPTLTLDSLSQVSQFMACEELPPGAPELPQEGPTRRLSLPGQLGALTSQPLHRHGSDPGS

On to `C=CC(=O)N1CC[C@@H](n2nc(-c3ccc(Oc4ccccc4F)nc3)c3c(N)ncnc32)C1` [Compound 23b, (R)-1-(3-(4-amino-3-(6-(2-fluorophenoxy)pyridin-3-yl)-1H-pyrazolo[3,4-d]pyrimidin-1-yl)pyrrolidin-1-yl)prop-2-en-1-one], for which the pIC50 (in general, the negative decadic logarithm of the IC50, by convention in mol/L) in data set [1] was 8.02.

For `C=CC(=O)N1CCC[C@@H](n2nc(-c3cnc(Oc4ccccc4)cc3F)c3c(N)ncnc32)C1` [Compound 16a, (R)-1-(3-(4-amino-3-(4-fluoro-6-phenoxypyridin-3-yl)-1H-pyrazolo[3,4-d]pyrimidin-1-yl)piperidin-1-yl)prop-2-en-1-one], the pIC50 in data set [1] is 8.05; in data set [2], 5.16.

For the molecule `C=CC(=O)N1CCC[C@@H](n2nc(-c3ccc(Oc4cccc(F)c4)nc3)c3c(N)ncnc32)C1` [Compound 15c, (R)-1-(3-(4-amino-3-(6-(3-fluorophenoxypyridine)-3-yl)-1H-pyrazolo[3,4-d]pyrimidin-1-yl)piperidin-1-yl)prop-2-en-1-one], the pIC50 in data set [1] was 8.07. In addition, the IC50 in data set [3] worked out at 2.06 µM; in data set [4], 6.23 µM; in data set [5], 4.12 nM; in data set [6] it was 2.23 nM.

In turn, `C=CC(=O)N1CCC[C@@H](n2nc(-c3ccc(Oc4cccc(F)c4F)nc3)c3c(N)ncnc32)C1` [Compound 15h, (R)-1-(3-(4-amino-3-(6-(2,3-difluorophenoxypyridine)-3-yl)-1H-pyrazolo[3,4-d]pyrimidin-1-yl)piperidin-1-yl)prop-2-en-1-one] gave a pIC50 in data set [1] of 8.49.

The molecule `C=CC(=O)N1CCC[C@@H](n2nc(-c3cnc(Oc4ccccc4)c(F)c3)c3c(N)ncnc32)C1` [Compound 16b, (R)-1-(3-(4-amino-3-(5-fluoro-6-phenoxypyridin-3-yl)-1H-pyrazolo[3,4-d]pyrimidin-1-yl)piperidin-1-yl)prop-2-en-1-one] showed a pIC50 in data set [1] of 8.07.

As to `C=CC(=O)N1CCC[C@@H](n2nc(-c3ccc(Oc4ccc(OC)cc4)nc3)c3c(N)ncnc32)C1` [Compound 15j], the pIC50 in data set [1] was 7.49; in data set [2], 4.76.

In data set [7] (setting [8]), `C=CC(=O)N1CCC[C@@H](n2nc(-c3ccc(Oc4ccccc4)cc3)c3c(N)ncnc32)C1` [Ibrutinib, reference compound] gave an AUC0-C(ng/h/mL) of 550 ng·h/mL and an AUC0-t (ng/h/mL) of 544 ng·h/mL. For the same molecule, the bioavailability (in general, the share of a dose that reaches the circulation, judged against a reference dose that is usually intravenous) in data set [7] (rat, plasma, oral 10 mg/kg vs intravenous 2 mg/kg, mean n = 3) was determined as 12.5%. Further, in data set [7] (rat, plasma, oral (intragastric) 10 mg/kg, mean n = 3), the Cmax (usually the highest concentration seen after dosing) amounted to 254 ng/mL.

As to `C=CC(=O)N1CC[C@H](n2nc(-c3ccc(Oc4ccccc4)nc3F)c3c(N)ncnc32)C1` [Compound 24b, (S)-1-(3-(4-amino-3-(2-fluoro-6-phenoxypyridin-3-yl)-1H-pyrazolo[3,4-d]pyrimidin-1-yl)pyrrolidin-1-yl)prop-2-en-1-one], the “oral bioavailability relative to ibrutinib” value in data set [7] (oral 10 mg/kg) was 3.69 times.

Regarding `C=CC(=O)N1CCC[C@@H](n2nc(-c3ccc(Oc4c(F)cccc4F)nc3)c3c(N)ncnc32)C1` [Compound 15g, (R)-1-(3-(4-amino-3-(6-(2,6-difluorophenoxypyridine)-3-yl)-1H-pyrazolo[3,4-d]pyrimidin-1-yl)piperidin-1-yl)prop-2-en-1-one], in data set [1], the pIC50 was 8.11.

Molecule `C=CC(=O)N1CCC[C@@H](n2nc(-c3ccc(Oc4ccc(Cl)cc4)nc3)c3c(N)ncnc32)C1` [Compound 15e, (R)-1-(3-(4-amino-3-(6-(4-chlorophenoxypyridine)-3-yl)-1H-pyrazolo[3,4-d]pyrimidin-1-yl)piperidin-1-yl)prop-2-en-1-one] had a pIC50 in data set [1] of 7.98.

In data set [1], `C=CC(=O)N1CCC[C@@H](n2nc(-c3ccc(Oc4ccc(F)c(F)c4)nc3)c3c(N)ncnc32)C1` [Compound 15f, (R)-1-(3-(4-amino-3-(6-(3,4-difluorophenoxypyridine)-3-yl)-1H-pyrazolo[3,4-d]pyrimidin-1-yl)piperidin-1-yl)prop-2-en-1-one] gave a pIC50 of 7.60. Compared with the last molecule, the pIC50 is 0.38 log units lower.

In data set [1], `C=CC(=O)N1CC[C@@H](n2nc(-c3ccc(Oc4c(F)cccc4F)nc3)c3c(N)ncnc32)C1` [Compound 23c, (R)-1-(3-(4-amino-3-(6-(2,6-difluorophenoxy)pyridin-3-yl)-1H-pyrazolo[3,4-d]pyrimidin-1-yl)pyrrolidin-1-yl)prop-2-en-1-one] had a pIC50 of 8.01.

`C=CC(=O)N1CCC[C@@H](n2nc(-c3ccc(Oc4ccccc4)nc3C)c3c(N)ncnc32)C1` [Compound 16d, (R)-1-(3-(4-amino-3-(2-methyl-6-phenoxypyridin-3-yl)-1H-pyrazolo[3,4-d]pyrimidin-1-yl)piperidin-1-yl)prop-2-en-1-one] showed a pIC50 in data set [1] of 8.14.

Consider `C=CC(=O)N1CCC[C@@H](n2nc(-c3cnc(Oc4ccccc4)cc3C)c3c(N)ncnc32)C1` [Compound 16c, (R)-1-(3-(4-amino-3-(4-methyl-6-phenoxypyridin-3-yl)-1H-pyrazolo[3,4-d]pyrimidin-1-yl)piperidin-1-yl)prop-2-en-1-one], for which, in data set [1], the pIC50 was 8.18.

Consider `C=CC(=O)N1CCC[C@@H](n2nc(-c3ccc(Oc4ccc(C(F)(F)F)cc4)nc3)c3c(N)ncnc32)C1` [Compound 15k, (R)-1-(3-(4-amino-3-(6-(4-trifluoromethylphenoxypyridine)-3-yl)-1H-pyrazolo[3,4-d]pyrimidin-1-yl)piperidin-1-yl)prop-2-en-1-one], for which the pIC50 in data set [1] was 7.74.

In the case of `C=CC(=O)N1CC[C@@H](n2nc(-c3ccc(Oc4cccc(F)c4F)nc3)c3c(N)ncnc32)C1` [Compound 23d, (R)-1-(3-(4-amino-3-(6-(2,3-difluorophenoxy)pyridin-3-yl)-1H-pyrazolo[3,4-d]pyrimidin-1-yl)pyrrolidin-1-yl)prop-2-en-1-one], the pIC50 in data set [1] is 8.13.

As for `Nc1ncnc2c1c(-c1ccc(Oc3ccccc3)nc1)nn2[C@@H]1CCCN(C(=O)C#CCCO)C1` [Compound 21c, (R)-1-(3-(4-amino-3-(6-phenoxypyridin-3-yl)-1H-pyrazolo[3,4-d]pyrimidin-1-yl)piperidin-1-yl)-5-hydroxypent-2-yn-1-one], in data set [2], the pIC50 was 4.60.
